From patent US20240150290A1, “HETEROCYCLIC P2Y14 RECEPTOR ANTAGONISTS” (priority 2021, published 2024)
Where two headings read alike, the source gives them in different places.

Columns and labels:
[1] = biological target: T1, hP2Y14R (Homo sapiens, UniProt Q15391); assay: Inhibition of fluorescent antagonist binding in whole hP2Y14R-expressing CHO cells (flow cytometry); details: Table 2; tracer 2 (20 nM, 45 min), CHO cells; read-out: hP2Y14R, IC50
T1 construct: expressed in transfected cells; host or cells: CHO cells
T1 sequence (Q15391 1-338): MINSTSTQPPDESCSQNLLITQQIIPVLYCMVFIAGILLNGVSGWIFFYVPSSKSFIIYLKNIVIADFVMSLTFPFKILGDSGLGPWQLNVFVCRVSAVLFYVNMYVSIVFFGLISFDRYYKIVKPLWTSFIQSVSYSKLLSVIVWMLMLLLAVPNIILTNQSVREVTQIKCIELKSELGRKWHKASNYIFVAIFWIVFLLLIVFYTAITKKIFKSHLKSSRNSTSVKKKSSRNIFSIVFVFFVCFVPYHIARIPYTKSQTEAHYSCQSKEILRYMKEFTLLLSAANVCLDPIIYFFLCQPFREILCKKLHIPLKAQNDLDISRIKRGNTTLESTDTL

[2] = Microsomal stability, rat; format: in vitro ADME; details: Table 4
[3] = Microsomal stability, mouse; format: in vitro ADME; details: Table 4
[4] = Plasma stability, rat; details: Table 4
[5] = biological target: T2, mP2Y14R (Mus musculus, UniProt Q9ESG6); assay: cell-based
T2 sequence (Q9ESG6 1-338): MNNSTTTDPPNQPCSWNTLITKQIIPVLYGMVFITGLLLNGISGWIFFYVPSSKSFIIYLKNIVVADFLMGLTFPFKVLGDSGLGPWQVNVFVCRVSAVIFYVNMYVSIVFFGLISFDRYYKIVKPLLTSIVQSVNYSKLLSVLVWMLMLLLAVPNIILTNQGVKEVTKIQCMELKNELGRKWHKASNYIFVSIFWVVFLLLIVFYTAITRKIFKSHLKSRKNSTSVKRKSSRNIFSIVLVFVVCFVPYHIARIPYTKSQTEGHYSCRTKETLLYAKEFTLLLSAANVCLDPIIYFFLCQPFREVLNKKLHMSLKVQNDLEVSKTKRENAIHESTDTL
From the text: Desirably, receptor affinity is maintained across species, facilitating performance in in vivo preclinical testing in small animals, with the mouse being the most commonly used species in initial evaluation.

[6] = biological target: T3, CYP2D6 (Homo sapiens, UniProt P10635); assay: CYP2D6 inhibition; format: in vitro ADME; details: Table 4
[7] = biological target: hERG ion channel (Homo sapiens, UniProt Q12809); assay: hERG ion channel block, patch clamp assay
[8] = Stability in simulated intestinal fluid; details: Table 4
[9] = test system: CCI-induced mechano-allodynia; assay: Chronic constriction injury (CCI) mouse model of neuropathic pain; details: 10 μmol/kg, i.p., day 7 post-injury
[10] = biological target: T4, CYP3A4 (Homo sapiens, UniProt P08684); assay: CYP3A4 inhibition; format: in vitro ADME; details: Table 4
[11] = biological target: T5, CYP2C9 (Homo sapiens, UniProt P11712); assay: CYP2C9 inhibition; details: read-out: CYP2C9 (IC50); Table 4
[12] = Microsomal stability, human; details: Table 4
[13] = biological target: T6, CYP2C19 (Homo sapiens, UniProt P33261); assay: CYP2C19 inhibition; format: in vitro ADME; details: Table 4
[14] = Plasma stability, mouse; details: Table 4
[15] = biological target: T7, CYP1A2 (Homo sapiens, UniProt P05177); assay: CYP1A2 inhibition; format: in vitro ADME; details: Table 4
T7 sequence (P05177 1-516): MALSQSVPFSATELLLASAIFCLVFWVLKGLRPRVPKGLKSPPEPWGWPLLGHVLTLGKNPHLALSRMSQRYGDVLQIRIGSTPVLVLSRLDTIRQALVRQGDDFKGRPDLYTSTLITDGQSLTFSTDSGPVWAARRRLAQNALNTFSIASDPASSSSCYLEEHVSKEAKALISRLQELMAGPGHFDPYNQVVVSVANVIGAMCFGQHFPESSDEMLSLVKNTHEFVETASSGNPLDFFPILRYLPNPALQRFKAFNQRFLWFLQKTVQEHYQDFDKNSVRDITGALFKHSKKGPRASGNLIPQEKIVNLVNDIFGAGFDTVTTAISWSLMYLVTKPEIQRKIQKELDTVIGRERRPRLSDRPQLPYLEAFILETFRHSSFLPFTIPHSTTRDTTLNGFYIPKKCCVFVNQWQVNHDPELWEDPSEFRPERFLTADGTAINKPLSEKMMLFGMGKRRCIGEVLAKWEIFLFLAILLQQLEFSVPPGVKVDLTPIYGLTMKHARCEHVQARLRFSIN

[16] = Stability in simulated gastric fluid; details: Table 4
[17] = Aqueous solubility, pION method; details: mean ± SD, Table 4
[18] = in vivo; details: Wistar, rat, iv, 0.5 mg/kg
[19] = Pharmacokinetics in Wistar rats (i.v., i.p.)
[20] = Table 4; Yu et al.; cited from earlier work
[21] = i.v. administration in rat, 0.5 mg/kg; Yu et al.; cited from earlier work
[22] = rat; Table 4; Yu et al.; cited from earlier work
[23] = biological target: T3, CYP2D6; details: Table 4; Yu et al.; cited from earlier work
[24] = rat; Table 4; Yu et al.; cited from earlier work; remark: listed apart in the source
[25] = mouse; Table 4; Yu et al.; cited from earlier work
[26] = biological target: T7, CYP1A2; details: Table 4; Yu et al.; cited from earlier work
[27] = biological target: T6, CYP2C19; details: Table 4; Yu et al.; cited from earlier work
[28] = Table 4; Yu et al.; cited from earlier work; remark: listed apart in the source
[29] = human; Table 4; Yu et al.; cited from earlier work
[30] = mouse; Table 4; Yu et al.; cited from earlier work; remark: listed apart in the source
[31] = biological target: T5, CYP2C9; details: Table 4; Yu et al.; cited from earlier work
[32] = pH 7.4; mean ± SD; Table 4; Yu et al.; cited from earlier work
[33] = biological target: T4, CYP3A4; details: Table 4; Yu et al.; cited from earlier work
[34] = human; Table 4; Yu et al.; cited from earlier work; remark: listed apart in the source

T3 sequence (P10635 whole entry): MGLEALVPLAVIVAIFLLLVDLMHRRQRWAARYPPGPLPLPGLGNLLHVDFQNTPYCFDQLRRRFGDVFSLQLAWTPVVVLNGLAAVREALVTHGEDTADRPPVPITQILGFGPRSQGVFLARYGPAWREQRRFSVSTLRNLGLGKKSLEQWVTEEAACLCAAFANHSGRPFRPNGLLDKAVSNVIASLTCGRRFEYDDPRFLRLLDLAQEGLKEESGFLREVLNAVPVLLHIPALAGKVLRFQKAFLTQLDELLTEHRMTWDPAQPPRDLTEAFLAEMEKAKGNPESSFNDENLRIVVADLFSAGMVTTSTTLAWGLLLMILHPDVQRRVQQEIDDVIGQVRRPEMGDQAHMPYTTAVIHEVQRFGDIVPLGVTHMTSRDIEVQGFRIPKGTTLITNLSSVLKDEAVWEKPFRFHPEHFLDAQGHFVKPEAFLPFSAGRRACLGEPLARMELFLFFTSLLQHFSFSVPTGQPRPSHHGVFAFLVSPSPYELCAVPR
T6 sequence (P33261 whole entry): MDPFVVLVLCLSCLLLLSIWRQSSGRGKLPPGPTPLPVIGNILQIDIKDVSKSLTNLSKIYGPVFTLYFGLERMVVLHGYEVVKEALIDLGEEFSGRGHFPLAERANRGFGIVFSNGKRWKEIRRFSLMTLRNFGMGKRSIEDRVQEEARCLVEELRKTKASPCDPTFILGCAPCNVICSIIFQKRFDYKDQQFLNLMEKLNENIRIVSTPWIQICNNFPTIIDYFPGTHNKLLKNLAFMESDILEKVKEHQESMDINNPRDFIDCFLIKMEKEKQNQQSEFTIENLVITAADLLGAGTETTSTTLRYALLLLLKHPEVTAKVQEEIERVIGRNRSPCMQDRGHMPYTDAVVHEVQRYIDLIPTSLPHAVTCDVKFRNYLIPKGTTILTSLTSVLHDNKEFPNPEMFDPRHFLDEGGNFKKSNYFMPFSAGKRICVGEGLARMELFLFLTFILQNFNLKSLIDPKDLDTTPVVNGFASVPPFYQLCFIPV
T4 sequence (P08684 whole entry): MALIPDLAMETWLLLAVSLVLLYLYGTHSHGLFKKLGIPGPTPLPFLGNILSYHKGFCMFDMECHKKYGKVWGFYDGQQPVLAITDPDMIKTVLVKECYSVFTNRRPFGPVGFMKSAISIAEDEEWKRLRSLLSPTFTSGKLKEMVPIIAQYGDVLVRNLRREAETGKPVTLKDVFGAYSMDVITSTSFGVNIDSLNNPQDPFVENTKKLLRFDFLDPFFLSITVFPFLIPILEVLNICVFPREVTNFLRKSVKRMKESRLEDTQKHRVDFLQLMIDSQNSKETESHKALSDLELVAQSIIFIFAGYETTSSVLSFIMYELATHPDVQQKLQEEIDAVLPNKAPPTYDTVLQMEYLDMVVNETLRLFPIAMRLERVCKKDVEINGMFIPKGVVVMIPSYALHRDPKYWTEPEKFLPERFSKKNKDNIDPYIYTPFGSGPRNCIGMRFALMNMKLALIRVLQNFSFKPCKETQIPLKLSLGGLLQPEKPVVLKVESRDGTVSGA
T5 sequence (P11712 whole entry): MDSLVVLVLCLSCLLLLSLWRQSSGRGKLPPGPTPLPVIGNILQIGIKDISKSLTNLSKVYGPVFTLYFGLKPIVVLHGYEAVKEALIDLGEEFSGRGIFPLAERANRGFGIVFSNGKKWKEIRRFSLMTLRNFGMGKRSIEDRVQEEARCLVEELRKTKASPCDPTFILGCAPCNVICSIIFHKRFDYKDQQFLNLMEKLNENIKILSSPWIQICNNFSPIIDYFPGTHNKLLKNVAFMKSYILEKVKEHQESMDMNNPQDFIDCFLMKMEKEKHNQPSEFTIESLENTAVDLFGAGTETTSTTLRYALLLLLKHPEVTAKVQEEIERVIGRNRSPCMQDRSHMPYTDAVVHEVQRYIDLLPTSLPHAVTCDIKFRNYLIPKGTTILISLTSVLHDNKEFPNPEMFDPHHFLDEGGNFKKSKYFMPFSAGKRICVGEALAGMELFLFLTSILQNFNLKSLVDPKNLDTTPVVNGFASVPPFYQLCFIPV
Sequence of hERG ion channel (Q12809 whole entry): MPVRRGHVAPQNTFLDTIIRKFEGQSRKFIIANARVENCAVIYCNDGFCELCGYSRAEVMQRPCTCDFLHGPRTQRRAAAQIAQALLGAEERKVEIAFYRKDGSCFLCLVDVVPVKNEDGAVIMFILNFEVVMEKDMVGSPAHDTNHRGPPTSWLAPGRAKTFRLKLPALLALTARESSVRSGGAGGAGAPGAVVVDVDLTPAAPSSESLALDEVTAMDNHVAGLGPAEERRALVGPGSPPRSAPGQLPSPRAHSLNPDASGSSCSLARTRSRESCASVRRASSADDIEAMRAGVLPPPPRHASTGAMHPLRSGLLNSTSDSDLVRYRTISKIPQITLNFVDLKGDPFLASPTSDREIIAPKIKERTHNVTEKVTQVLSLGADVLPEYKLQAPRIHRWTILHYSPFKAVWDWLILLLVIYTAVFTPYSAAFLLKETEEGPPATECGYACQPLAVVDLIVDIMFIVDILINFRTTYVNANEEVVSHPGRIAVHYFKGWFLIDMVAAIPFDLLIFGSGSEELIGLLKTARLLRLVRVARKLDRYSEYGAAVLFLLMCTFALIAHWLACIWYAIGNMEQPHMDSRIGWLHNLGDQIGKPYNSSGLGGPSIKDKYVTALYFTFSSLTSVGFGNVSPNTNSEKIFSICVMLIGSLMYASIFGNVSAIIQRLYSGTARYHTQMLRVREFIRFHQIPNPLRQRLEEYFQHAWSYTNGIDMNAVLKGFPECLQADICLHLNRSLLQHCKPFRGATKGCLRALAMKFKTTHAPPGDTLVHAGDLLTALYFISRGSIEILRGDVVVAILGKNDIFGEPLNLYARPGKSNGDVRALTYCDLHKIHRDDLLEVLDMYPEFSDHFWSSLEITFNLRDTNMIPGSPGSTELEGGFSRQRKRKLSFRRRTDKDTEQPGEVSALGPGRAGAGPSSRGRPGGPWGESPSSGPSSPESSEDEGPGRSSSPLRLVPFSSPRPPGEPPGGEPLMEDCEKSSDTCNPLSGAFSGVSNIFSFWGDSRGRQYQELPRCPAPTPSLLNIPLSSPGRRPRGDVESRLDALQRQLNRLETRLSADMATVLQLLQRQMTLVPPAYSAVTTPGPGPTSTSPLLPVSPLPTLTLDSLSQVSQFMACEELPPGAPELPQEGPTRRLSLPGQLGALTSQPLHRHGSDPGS

O=C(O)c1cc(-c2ccc(-c3cc(CO)on3)cc2)c2ccc(-c3ccc(C(F)(F)F)cc3)cc2c1 [Compound 32, 4-(4-(5-(Hydroxymethyl)isoxazol-3-yl)phenyl)-7-(4-(trifluoromethyl)phenyl)-2-naphthoic acid]
IC50 [1]: 0.015 ± 0.0044 µM | Microsomal stability (t1/2, min) [2]: 47.7 min | Microsomal stability (t1/2, min) [3]: >240 (m) min | Plasma stability (t1/2, min) [4]: TBD (h); >240 (r); min | affinity at the mP2Y14R vs the human homologue ([5]; comparison of species, in words): nearly the same affinity in the two species | IC50 ([5]; read-out: mP2Y14R, IC50, Table 2, tracer 2 (20 nM, 45 min), HEK293 cells): 0.0186 ± 0.0084 µM | IC50 [6]: > 30 µM | IC50 [7]: > 30 µM | Simulated intestinal fluid (t1/2, min) [8]: >240 min | reversal of mechano-allodynia (figure legend) [9]: reversal of CCI-induced mechano-allodynia | IC50 [10]: > 30 µM | IC50 [11]: 10.4 µM | Microsomal stability (t1/2, min) [12]: > 240 min | IC50 [13]: > 30 µM | Plasma stability (t1/2, min) [14]: >240 (m) min | IC50 [15]: > 30 µM | Simulated gastric fluid (t1/2, min) [16]: 161 min | aqueous solubility (pH 4.0, μg/mL) ([17]; pH 4.0): 0.14 ± 0.02 μg/mL | aqueous solubility (pH 7.4, μg/mL) ([17]; pH 7.4): 7.63 ± 1.93 μg/mL | bioavailability [18]: 100% | t1/2 ([19]; i.v. administration in rat, 0.5 mg/kg, Table 4): 0.689 h | AUC0-last ([19]; rat, i.p., 1.0 mg/kg): 650 ng·h/mL | AUC0-∞ ([19]; rat, i.p., 1.0 mg/kg): 700 ng·h/mL | Cl ([19]; rat, i.p., 1.0 mg/kg): 23.83 mL/min/kg | Cmax ([19]; rat, i.p., 1.0 mg/kg): 88.4 ng/mL | F (%) ([19]; rat, i.p., 1.0 mg/kg): 139% | Kel ([19]; rat, i.p., 1.0 mg/kg): 0.096 h⁻¹ | T1/2 ([19]; rat, i.p., 1.0 mg/kg): 7.23 h | Vd (mL/kg) ([19]; rat, i.p., 1.0 mg/kg): 14,900 mL/kg | AUC0-last ([19]; rat, i.p., 3.0 mg/kg): 2060 ng·h/mL | AUC0-∞ ([19]; rat, i.p., 3.0 mg/kg): 2120 ng·h/mL | Cl ([19]; rat, i.p., 3.0 mg/kg): 23.67 mL/min/kg | Cmax ([19]; rat, i.p., 3.0 mg/kg): 315 ng/mL | F (%) ([19]; rat, i.p., 3.0 mg/kg): 147% | Kel ([19]; rat, i.p., 3.0 mg/kg): 0.148 h⁻¹ | T1/2 ([19]; rat, i.p., 3.0 mg/kg): 4.68 h | Vd ([19]; rat, i.p., 3.0 mg/kg): 9.57 L/kg | AUC0-last ([19]; rat, i.p., 10 mg/kg): 4900 ng·h/mL | AUC0-∞ ([19]; rat, i.p., 10 mg/kg): 4920 ng·h/mL | Cl ([19]; rat, i.p., 10 mg/kg): 33.83 mL/min/kg | Cmax ([19]; rat, i.p., 10 mg/kg): 786 ng/mL | F (%) ([19]; rat, i.p., 10 mg/kg): 105% | Kel ([19]; rat, i.p., 10 mg/kg): 0.233 h⁻¹ | T1/2 ([19]; rat, i.p., 10 mg/kg): 2.98 h | Vd ([19]; rat, i.p., 10 mg/kg): 8.73 L/kg | AUC0-last ([19]; rat, i.v., 0.5 mg/kg): 234 ng·h/mL | AUC0-∞ ([19]; rat, i.v., 0.5 mg/kg): 238 ng·h/mL | Cl ([19]; rat, i.v., 0.5 mg/kg): 35.17 mL/min/kg | Cmax ([19]; rat, i.v., 0.5 mg/kg): 359 ng/mL | Kel ([19]; rat, i.v., 0.5 mg/kg): 1.01 h⁻¹ | T1/2 ([19]; rat, i.v., 0.5 mg/kg): 0.689 h | Vd ([19]; rat, i.v., 0.5 mg/kg): 2.09 L/kg

NC(=O)c1ccc(-c2cc(C(=O)O)cc(-n3cc(-c4ccc(C(F)(F)F)cc4)nn3)c2)cc1 [Compound 5]
Simulated intestinal fluid (t1/2, min) [20]: >240 min | t1/2 [21]: 0.20 h | Plasma stability (t1/2, min) [22]: >240 (h); >240 (r); min | IC50 [23]: > 30 µM | Microsomal stability (t1/2, min) [24]: 108 min | Microsomal stability (t1/2, min) [25]: 145 min | IC50 [26]: > 30 µM | IC50 [27]: > 30 µM | Simulated gastric fluid (t1/2, min) [28]: >240 min | Microsomal stability (t1/2, min) [29]: 145 (h) min | Plasma stability (t1/2, min) [30]: >240 (m) min | IC50 [31]: > 30 µM | aqueous solubility (pH 7.4, μg/mL) [32]: 138 ± 4 μg/mL | IC50 [33]: > 30 µM | Plasma stability (t1/2, min) [34]: >240 (h); >240 (r); min
